In PubChem BioAssay AID328 (DTP/NCI, 2004):
Several values for one entry are separate records, joined by “and”; a condition that tells them apart may be missing. Identical values can stand only once. Inconclusive results and toxic doses are left out.

Tested on: BDF1 mice, P388 leukemia ip, median survival T/C
Test: NCI In Vivo Anticancer Drug Screen. Data for tumor model P388 Leukemia (intraperitoneal) in B6D2F1 (BDF1) mice
Conditions: endpoint: median survival time, higher = longer survival
Outline: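 Survival ratio, drug arm over vehicle arm, in mice with a transplanted tumour.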

[1] = dose: 25.0 mg/kg/injection, schedule: Q01DX009 (ip), vehicle: saline
[2] = dose: 50.0 mg/kg/injection, schedule: Q01DX009 (ip), vehicle: saline
[3] = dose: 100.0 mg/kg/injection, schedule: Q01DX009 (ip), vehicle: saline
[4] = dose: 50.0 mg/kg/injection, schedule: Q01DX009 (ip), vehicle: saline with Tween-80
[5] = dose: 100.0 mg/kg/injection, schedule: Q01DX009 (ip), vehicle: saline with Tween-80
[6] = dose: 200.0 mg/kg/injection, schedule: Q01DX009 (ip), vehicle: saline with Tween-80
[7] = dose: 100.0 mg/kg/injection, schedule: Q04DX003 (ip), vehicle: saline with Tween-80
[8] = dose: 200.0 mg/kg/injection, schedule: Q04DX003 (ip), vehicle: saline with Tween-80
[9] = dose: 400.0 mg/kg/injection, schedule: Q04DX003 (ip), vehicle: saline with Tween-80
[10] = dose: 400.0 mg/kg/injection, schedule: Q01DX009 (ip), vehicle: saline with Tween-80
[11] = dose: 100.0 mg/kg/injection, schedule: Q04DX003 (ip), vehicle: saline
[12] = dose: 200.0 mg/kg/injection, schedule: Q04DX003 (ip), vehicle: saline
[13] = dose: 400.0 mg/kg/injection, schedule: Q04DX003 (ip), vehicle: saline
[14] = dose: 12.5 mg/kg/injection, schedule: Q01DX009 (ip), vehicle: saline
[15] = dose: 50.0 mg/kg/injection, schedule: Q04DX003 (ip), vehicle: saline
[16] = dose: 25.0 mg/kg/injection, schedule: Q04DX003 (ip), vehicle: saline

OC1CCC(O)C1(Cl)Cl (stereo not given)
T/C [1]: 109 % of control | T/C [2]: 108 % of control | T/C [3]: 98 % of control

CC1=C(Cc2ccccc2)C(C)(C)CCC1
T/C [4]: 103 % of control | T/C [5]: 112 % of control | T/C [6]: 121 % of control

COc1ccc(C2=NNc3n[nH]c(=S)n3N2)cc1OC
T/C [7]: 100 % of control | T/C [8]: 100 % of control | T/C [9]: 91 % of control

NC(=O)CN1C(=O)c2ccccc2C1=O
T/C [5]: 100 % of control | T/C [7]: 95 % of control | T/C [6]: 90 % of control | T/C [8]: 100 % of control | T/C [10]: 100 % of control | T/C [9]: 100 % of control

Cc1ccnc(NS(=O)(=O)c2ccc(N=Cc3ccc(N(C)C)cc3)cc2)n1
T/C [4]: 90 % of control | T/C [5]: 93 % of control | T/C [6]: 90 % of control

CC(C)NCC(O)COc1ccc(OCc2ccccc2)c(OCc2ccccc2)c1 (stereo not given)
T/C (dose: 25.0 mg/kg/injection, schedule: Q01DX009 (ip), vehicle: saline with Tween-80): 106 % of control | T/C [4]: 94 % of control

CC1=Nc2ccccc2NC(C)(C)C1
T/C [11]: 101 % of control | T/C [12]: 99 % of control | T/C [13]: 90 % of control

CCN1c2ccccc2CC(CCCN(C)C)(C(N)=O)c2ccccc21 (stereo not given)
T/C [3]: 97 % of control | T/C (dose: 200.0 mg/kg/injection, schedule: Q01DX009 (ip), vehicle: saline): 98 % of control

O=C1NC(c2ccccc2)(c2ccccc2)C(=O)N1CCBr
T/C [14]: 105 % of control and 121 % of control | T/C [1]: 105 % of control and 113 % of control | T/C [2]: 107 % of control and 113 % of control | T/C [15]: 107 % of control

CC(=O)n1cc(C2CC(=O)OC3=C2CC(=O)C(C)(C)C3)c2ccccc21 (stereo not given)
T/C (dose: 50.0 mg/kg/injection, schedule: Q04DX003 (ip), vehicle: saline with Tween-80): 100 % of control | T/C [7]: 88 % of control and 95 % of control | T/C [8]: 94 % of control and 95 % of control | T/C [9]: 94 % of control and 96 % of control

CCN(CC)CCNC(=S)N/N=C(C)\C(C)=N/NC(=S)NCCN(CC)CC
T/C (dose: 6.25 mg/kg/injection, schedule: Q01DX009 (ip), vehicle: saline): 105 % of control | T/C [14]: 105 % of control

COc1ccc(C(=O)C(Br)C(Br)C(=O)O)cc1 (stereo not given)
T/C [14]: 100 % of control | T/C [1]: 95 % of control and 104 % of control | T/C [16]: 100 % of control | T/C [2]: 95 % of control and 112 % of control | T/C [15]: 109 % of control | T/C [3]: 105 % of control | T/C [11]: 86 % of control

CC(C)N(C)C(C)(C)CO
T/C (dose: 50.0 mg/kg/injection, schedule: Q01DX001 (ip), vehicle: saline): 100 % of control | T/C (dose: 100.0 mg/kg/injection, schedule: Q01DX001 (ip), vehicle: saline): 100 % of control | T/C (dose: 200.0 mg/kg/injection, schedule: Q01DX001 (ip), vehicle: saline): 100 % of control

Clc1ccc2nc(CI)c(CI)nc2c1
T/C (dose: 3.12 mg/kg/injection, schedule: Q01DX009 (ip), vehicle: Klucel (hydroxypropylcellulose) (HPC)): 100 % of control | T/C (dose: 6.25 mg/kg/injection, schedule: Q01DX009 (ip), vehicle: Klucel (hydroxypropylcellulose) (HPC)): 100 % of control and 122 % of control | T/C (dose: 6.25 mg/kg/injection, schedule: Q04DX003 (ip), vehicle: saline): 108 % of control | T/C (dose: 12.5 mg/kg/injection, schedule: Q01DX009 (ip), vehicle: Klucel (hydroxypropylcellulose) (HPC)): 88 % of control and 100 % of control | T/C (dose: 12.5 mg/kg/injection, schedule: Q04DX003 (ip), vehicle: saline): 108 % of control | T/C (dose: 22.0 mg/kg/injection, schedule: Q01DX009 (ip), vehicle: saline with Tween-80): 122 % of control | T/C (dose: 25.0 mg/kg/injection, schedule: Q01DX009 (ip), vehicle: Klucel (hydroxypropylcellulose) (HPC)): 95 % of control | T/C [16]: 104 % of control | T/C (dose: 33.0 mg/kg/injection, schedule: Q01DX009 (ip), vehicle: saline with Tween-80): 113 % of control

C[C@]12C=CC(=O)C=C1CC[C@@H]1[C@@H]2[C@@H](O)C[C@@]2(C)[C@H]1CC[C@]2(O)C(=O)COC(=O)CCC(=O)O
T/C (dose: 66.0 mg/kg/injection, schedule: Q04DX003 (ip), vehicle: saline with Tween-80): 113 % of control | T/C [7]: 113 % of control | T/C (dose: 150.0 mg/kg/injection, schedule: Q04DX003 (ip), vehicle: saline with Tween-80): 108 % of control | T/C [6]: 118 % of control | T/C [10]: 118 % of control | T/C [9]: 104 % of control

CC1CCCC(C)(CO)O1 (stereo not given)
T/C [11]: 115 % of control | T/C [12]: 115 % of control | T/C [13]: 105 % of control

Cc1cc(N(CCCl)CCCl)c(C)cc1NC(=O)c1ccccc1
T/C (dose: 12.5 mg/kg/injection, schedule: Q01DX009 (ip), vehicle: saline with Tween-80): 195 % of control | T/C (dose: 16.5 mg/kg/injection, schedule: Q04DX003 (ip), vehicle: Klucel (hydroxypropylcellulose) (HPC)): 190 % of control | T/C (dose: 25.0 mg/kg/injection, schedule: Q04DX003 (ip), vehicle: Klucel (hydroxypropylcellulose) (HPC)): 118 % of control | T/C (dose: 37.5 mg/kg/injection, schedule: Q04DX003 (ip), vehicle: Klucel (hydroxypropylcellulose) (HPC)): 113 % of control

C/C(=N/NC(=O)c1ccccc1)c1ccc(Cl)cc1Cl
T/C (dose: 3.12 mg/kg/injection, schedule: Q04DX003 (ip), vehicle: Klucel (hydroxypropylcellulose) (HPC)): 110 % of control | T/C (dose: 6.25 mg/kg/injection, schedule: Q04DX003 (ip), vehicle: Klucel (hydroxypropylcellulose) (HPC)): 105 % of control | T/C (dose: 12.5 mg/kg/injection, schedule: Q04DX003 (ip), vehicle: Klucel (hydroxypropylcellulose) (HPC)): 100 % of control | T/C (dose: 18.0 mg/kg/injection, schedule: Q01DX009 (ip), vehicle: Klucel (hydroxypropylcellulose) (HPC)): 100 % of control | T/C (dose: 18.0 mg/kg/injection, schedule: Q04DX003 (ip), vehicle: Klucel (hydroxypropylcellulose) (HPC)): 100 % of control | T/C (dose: 28.0 mg/kg/injection, schedule: Q01DX009 (ip), vehicle: Klucel (hydroxypropylcellulose) (HPC)): 104 % of control | T/C (dose: 28.0 mg/kg/injection, schedule: Q04DX003 (ip), vehicle: Klucel (hydroxypropylcellulose) (HPC)): 100 % of control | T/C (dose: 40.0 mg/kg/injection, schedule: Q04DX003 (ip), vehicle: Klucel (hydroxypropylcellulose) (HPC)): 104 % of control | T/C (dose: 60.0 mg/kg/injection, schedule: Q04DX003 (ip), vehicle: Klucel (hydroxypropylcellulose) (HPC)): 110 % of control | T/C (dose: 90.0 mg/kg/injection, schedule: Q04DX003 (ip), vehicle: Klucel (hydroxypropylcellulose) (HPC)): 110 % of control

CN(C)c1ncnc2nsnc12
T/C (dose: 75.0 mg/kg/injection, schedule: Q04DX003 (ip), vehicle: saline with Tween-80): 95 % of control

CC(=O)OC1CCC(C(C)(C)C)CC1 (stereo not given)
T/C [15]: 95 % of control | T/C [11]: 109 % of control | T/C [12]: 109 % of control

CSc1ccc(NC(=O)Nc2ccc(N=Nc3ccccc3)cc2)cc1
T/C (dose: 42.5 mg/kg/injection, schedule: Q01DX009 (ip), vehicle: Klucel (hydroxypropylcellulose) (HPC)): 100 % of control | T/C (dose: 85.0 mg/kg/injection, schedule: Q01DX009 (ip), vehicle: Klucel (hydroxypropylcellulose) (HPC)): 100 % of control | T/C (dose: 170.0 mg/kg/injection, schedule: Q01DX009 (ip), vehicle: Klucel (hydroxypropylcellulose) (HPC)): 100 % of control

S=C(NCCCN1CCOCC1)NN=C1c2ccccc2-c2ccccc21
T/C [4]: 97 % of control | T/C [5]: 91 % of control | T/C [6]: 97 % of control

O=c1[nH]nc(CF)c(=O)[nH]1
T/C (dose: 3.0 mg/kg/injection, schedule: Q01DX009 (ip), vehicle: saline): 100 % of control and 109 % of control | T/C (dose: 6.0 mg/kg/injection, schedule: Q01DX009 (ip), vehicle: saline): 118 % of control | T/C (dose: 12.0 mg/kg/injection, schedule: Q01DX009 (ip), vehicle: saline): 150 % of control | T/C (dose: 24.0 mg/kg/injection, schedule: Q01DX009 (ip), vehicle: saline): 154 % of control and 172 % of control

O=C(NCCCl)NC1C(O)OC(CO)C(O)C1O (stereo not given)
T/C (dose: 25.0 mg/kg/injection, schedule: Q01DX009 (ip), vehicle: water): 109 % of control | T/C (dose: 50.0 mg/kg/injection, schedule: Q01DX009 (ip), vehicle: water): 120 % of control | T/C (dose: 50.0 mg/kg/injection, schedule: Q04DX003 (ip), vehicle: water): 101 % of control | T/C (dose: 100.0 mg/kg/injection, schedule: Q01DX009 (ip), vehicle: water): 92 % of control | T/C (dose: 100.0 mg/kg/injection, schedule: Q04DX003 (ip), vehicle: water): 86 % of control | T/C (dose: 200.0 mg/kg/injection, schedule: Q01DX009 (ip), vehicle: water): 91 % of control | T/C (dose: 200.0 mg/kg/injection, schedule: Q04DX003 (ip), vehicle: water): 109 % of control | T/C (dose: 400.0 mg/kg/injection, schedule: Q01DX009 (ip), vehicle: water): 94 % of control | T/C (dose: 400.0 mg/kg/injection, schedule: Q04DX003 (ip), vehicle: water): 101 % of control
